Measurements as given in PubChem BioAssay (NCI).
Values joined by “and” are separate entries in the source; they are usually repeats but may differ in a detail not shown here. Identical values can stand only once.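 Cultured in 96-well plates, cells were exposed to test compound for 48 hours across five concentrations. GI50 = concentration required for 50% inhibition of growth. TGI marks complete inhibition of growth.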

Key:
Assay in all cases: NCI tumour cell line growth inhibition, 48 h
HS 578T breast = test system: HS 578T breast
SK-OV-3 ovarian = test system: SK-OV-3 ovarian
ACHN renal = test system: ACHN renal
A498 renal = test system: A498 renal
MDA-MB-468 breast = test system: MDA-MB-468 breast
HOP-62 NSCLC = test system: HOP-62 NSCLC
SW-620 colon = test system: SW-620 colon
NCI/ADR-RES ovarian = test system: NCI/ADR-RES ovarian
HOP-92 NSCLC = test system: HOP-92 NSCLC
UACC-257 melanoma = test system: UACC-257 melanoma
HCT-15 colon = test system: HCT-15 colon
LOX IMVI melanoma = test system: LOX IMVI melanoma
CAKI-1 renal = test system: CAKI-1 renal
OVCAR-3 ovarian = test system: OVCAR-3 ovarian
M14 melanoma = test system: M14 melanoma
MCF7 breast = test system: MCF7 breast
SF-539 CNS = test system: SF-539 CNS
SF-295 CNS = test system: SF-295 CNS
MOLT-4 leukemia = test system: MOLT-4 leukemia
OVCAR-4 ovarian = test system: OVCAR-4 ovarian
SF-268 CNS = test system: SF-268 CNS
SR leukemia = test system: SR leukemia
NCI-H226 lung = test system: NCI-H226 lung
NCI-H23 lung = test system: NCI-H23 lung
EKVX NSCLC = test system: EKVX NSCLC
U251 CNS = test system: U251 CNS
COLO 205 colon = test system: COLO 205 colon
KM12 colon = test system: KM12 colon
CCRF-CEM leukemia = test system: CCRF-CEM leukemia
SK-MEL-28 melanoma = test system: SK-MEL-28 melanoma
RPMI-8226 leukemia = test system: RPMI-8226 leukemia
BT-549 breast = test system: BT-549 breast
786-0 renal = test system: 786-0 renal
SN12C renal = test system: SN12C renal
HL-60(TB) leukemia = test system: HL-60(TB) leukemia
MALME-3M melanoma = test system: MALME-3M melanoma
HCC-2998 colon = test system: HCC-2998 colon
NCI-H522 lung = test system: NCI-H522 lung
OVCAR-5 ovarian = test system: OVCAR-5 ovarian
RXF 393 renal = test system: RXF 393 renal
TK-10 renal = test system: TK-10 renal
SNB-19 CNS = test system: SNB-19 CNS
HT29 colon = test system: HT29 colon
UACC-62 melanoma = test system: UACC-62 melanoma
SK-MEL-5 melanoma = test system: SK-MEL-5 melanoma
HCT-116 colon = test system: HCT-116 colon
T-47D breast = test system: T-47D breast
OVCAR-8 ovarian = test system: OVCAR-8 ovarian
NCI-H460 lung = test system: NCI-H460 lung
K-562 leukemia = test system: K-562 leukemia
A549 NSCLC = test system: A549 NSCLC
PC-3 prostate = test system: PC-3 prostate
IGROV1 ovarian = test system: IGROV1 ovarian
MDA-MB-435 = test system: MDA-MB-435
DU-145 prostate = test system: DU-145 prostate

## CC[C@]12C=CCN3CC[C@@]4(c5ccc(OC)cc5N(C)[C@H]4[C@@](O)(C(=O)OC)[C@@H]1OC(=O)CCC[P+](c1ccc(F)cc1)(c1ccc(F)cc1)c1ccc(F)cc1)[C@@H]32
HS 578T breast
  GI50: 11.8 µM
  TGI: 42.4 µM
SK-OV-3 ovarian
  GI50: 15.8 µM
  TGI: > 48.5 µM
ACHN renal
  GI50: > 48.5 µM
  TGI: > 48.5 µM
A498 renal
  GI50: > 48.5 µM
  TGI: > 48.5 µM
MDA-MB-468 breast
  GI50: 1.5 µM
  TGI: 6.3 µM
HOP-62 NSCLC
  GI50: 20.5 µM
  TGI: > 48.5 µM
SW-620 colon
  GI50: 18.3 µM
  TGI: > 48.5 µM
NCI/ADR-RES ovarian
  GI50: > 48.5 µM
  TGI: > 48.5 µM
HOP-92 NSCLC
  GI50: 5.44 µM
  TGI: 19.9 µM
UACC-257 melanoma
  GI50: 4.67 µM
  TGI: 12 µM
HCT-15 colon
  GI50: > 48.5 µM
  TGI: > 48.5 µM
LOX IMVI melanoma
  GI50: 16.6 µM
  TGI: > 48.5 µM
CAKI-1 renal
  GI50: > 48.5 µM
  TGI: > 48.5 µM
OVCAR-3 ovarian
  GI50: 6.47 µM
  TGI: 40.7 µM
M14 melanoma
  GI50: 9.1 µM
  TGI: 28.9 µM
MCF7 breast
  GI50: 8.26 µM
  TGI: 30.8 µM
SF-539 CNS
  GI50: 16.8 µM
  TGI: > 48.5 µM
SF-295 CNS
  GI50: > 48.5 µM
  TGI: > 48.5 µM
MOLT-4 leukemia
  GI50: 9.69 µM
  TGI: > 48.5 µM
OVCAR-4 ovarian
  GI50: 16.2 µM
  TGI: > 48.5 µM
SF-268 CNS
  GI50: 15 µM
  TGI: > 48.5 µM
SR leukemia
  GI50: 7.45 µM
  TGI: 17.3 µM
NCI-H226 lung
  GI50: 24.2 µM
  TGI: > 48.5 µM
NCI-H23 lung
  GI50: 15.8 µM
  TGI: > 48.5 µM
EKVX NSCLC
  GI50: 19.4 µM
  TGI: > 48.5 µM
U251 CNS
  GI50: 9.36 µM
  TGI: > 48.5 µM
COLO 205 colon
  GI50: 4.98 µM
  TGI: 11.1 µM
KM12 colon
  GI50: 8.96 µM
  TGI: 20.6 µM
CCRF-CEM leukemia
  GI50: 12.7 µM
  TGI: 37.4 µM
SK-MEL-28 melanoma
  GI50: 5.34 µM
  TGI: 11.6 µM
RPMI-8226 leukemia
  GI50: 2.05 µM
  TGI: 9.33 µM
BT-549 breast
  GI50: 8.13 µM
  TGI: 26.5 µM
786-0 renal
  GI50: > 48.5 µM
  TGI: > 48.5 µM
SN12C renal
  GI50: 14.8 µM
  TGI: > 48.5 µM
HL-60(TB) leukemia
  GI50: 1.77 µM
  TGI: 7.82 µM
MALME-3M melanoma
  GI50: 6.85 µM
  TGI: 14 µM
HCC-2998 colon
  GI50: 9.53 µM
  TGI: 30 µM
NCI-H522 lung
  GI50: 3.88 µM
  TGI: 32 µM
OVCAR-5 ovarian
  GI50: 20.8 µM
  TGI: > 48.5 µM
RXF 393 renal
  GI50: 8.46 µM
  TGI: 30.7 µM
TK-10 renal
  GI50: 22.2 µM
  TGI: > 48.5 µM
SNB-19 CNS
  GI50: 11.4 µM
  TGI: > 48.5 µM
HT29 colon
  GI50: 12.5 µM
  TGI: > 48.5 µM
UACC-62 melanoma
  GI50: 6.05 µM
  TGI: 12.3 µM
SK-MEL-5 melanoma
  GI50: 8.26 µM
  TGI: 15.7 µM
HCT-116 colon
  GI50: 14.8 µM
  TGI: > 48.5 µM
T-47D breast
  GI50: 10.5 µM
  TGI: > 48.5 µM
OVCAR-8 ovarian
  GI50: 18.4 µM
  TGI: > 48.5 µM
NCI-H460 lung
  GI50: 17 µM
  TGI: > 48.5 µM
K-562 leukemia
  GI50: 9.83 µM
  TGI: > 48.5 µM
A549 NSCLC
  GI50: 21.2 µM
  TGI: > 48.5 µM
PC-3 prostate
  GI50: 12.6 µM
  TGI: > 48.5 µM
IGROV1 ovarian
  GI50: 7.09 µM
  TGI: 18.2 µM
MDA-MB-435
  GI50: 8.14 µM
  TGI: 18.5 µM
DU-145 prostate
  GI50: 23.7 µM
  TGI: > 48.5 µM

## Cc1cccc2c3c(sc12)C(c1ccc(F)cc1)C(C#N)=C(/N=C/c1ccc(Cl)cc1)O3 (stereo unspecified)
MDA-MB-468 breast
  GI50: 0.383 µM
  TGI: 12.6 µM

## Cc1cccc2c(C3=C(c4cn(C)c5ccccc45)C(=O)NC3=O)cn(C)c12
MDA-MB-468 breast
  GI50: 13.9 µM
  TGI: > 25 µM

## NC(N)=NN=c1c(=O)c2ccccc2c1=O
MDA-MB-468 breast
  GI50: 16.4 µM
  TGI: 30.7 µM

## CNC(=O)c1cc(Oc2ccc3nc(NC(=O)Nc4ccc(CN5CCOCC5)c(C(F)(F)F)c4)sc3c2)ccn1
MDA-MB-468 breast
  GI50: 1.45 µM
  TGI: 4.95 µM

## CC(=O)N[C@H](C)[C@@H](O)[C@@H](C)[C@@H]1OC(=O)/C=C/C=C(C)\C=C\[C@]2(C)C[C@@H](NS(C)(=O)=O)C=C[C@@H]2/C=C(C)/C=C/[C@H]1C
MDA-MB-468 breast
  GI50: 0.00245 µM and 0.00435 µM
  TGI: 2.12 µM and 7.39 µM

## COc1cc2c(Oc3ccc(NC(=O)C4(C(=O)Nc5ccc(F)cc5)CC4)cc3F)ccnc2cc1OCCCN1CCOCC1
MDA-MB-468 breast
  GI50: 0.92 µM and 1.05 µM
  TGI: 2.29 µM and 3.16 µM

## C[C@@H](O)[C@@H](C)Oc1nc(Nc2ccc(S(=N)(=O)C3CC3)cc2)ncc1C(F)(F)F (stereo partly specified)
MDA-MB-468 breast
  GI50: 0.023 µM
  TGI: 0.0615 µM

## COc1ccc(-c2nn(-c3cccc(Cl)c3)cc2/C=C2\NC(=S)N(c3ccc(Cl)cc3)C2=O)cc1
MDA-MB-468 breast
  GI50: 3.03 µM
  TGI: 6.89 µM

## C[C@@H]1CC[C@H]2[C@@H](C)C(O)O[C@@H]3O[C@]4(C)CC[C@@H]1[C@]32OO4 (stereo partly specified)
MDA-MB-468 breast
  GI50: 3.58 µM
  TGI: 33.2 µM

## O=C(Nc1ccc(OS(=O)(=O)c2ccc(F)cc2)cc1)C12CC3CC(CC(C3)C1)C2
MDA-MB-468 breast
  GI50: 1.33 µM
  TGI: > 100 µM

## CN1CCN(CCCOc2cccc3nc(Nc4cc(Cl)cc(Cl)c4)ccc23)CC1
MDA-MB-468 breast
  GI50: 1.69 µM
  TGI: 3.22 µM

## O=CC(OC(=O)c1ccccc1)C(OC(=O)c1ccccc1)C(COC(c1ccccc1)(c1ccccc1)c1ccccc1)OC(=O)c1ccccc1 (stereo unspecified)
MDA-MB-468 breast
  GI50: 11.8 µM
  TGI: 26.9 µM

## COc1ccccc1C1C2=C(COC2=O)Oc2cc3c(cc21)OCO3 (stereo unspecified)
MDA-MB-468 breast
  GI50: 5.08 µM
  TGI: > 100 µM
